Source: ChEMBL document CHEMBL1201862, “PubChem BioAssay data set” (2004)
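Cells were grown in 96-well plates and exposed to each compound for 48 hours at five concentrations; endpoints were interpolated linearly between bracketing concentrations, or set to the highest concentration if not reached. GI50 is the concentration that inhibits growth by half.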 Activity calls are given as the source filed them. Cut-off read from the data, not from the text of the source: active = GI50 up to about 1.1 µM and inactive = higher.

Assays:
Test in all cases: NCI tumour cell line growth inhibition, 48 h
UACC-257 = system: UACC-257
KM12 = system: KM12
SK-OV-3 = system: SK-OV-3
SN12C = system: SN12C
OVCAR-4 = system: OVCAR-4
IGROV-1 = system: IGROV-1
SNB-19 = system: SNB-19
SNB-75 = system: SNB-75
RXF 393 = system: RXF 393
EKVX = system: EKVX
LOX IMVI = system: LOX IMVI
NCI-H460 = system: NCI-H460
SF-295 = system: SF-295
SF-268 = system: SF-268
HT-29 = system: HT-29
MDA-MB-231 = system: MDA-MB-231
HOP-62 = system: HOP-62
UACC-62 = system: UACC-62
HCT-15 = system: HCT-15
HCC 2998 = system: HCC 2998

Row | Structure (SMILES) | GI50 (UACC-257) | GI50 (KM12) | GI50 (SK-OV-3) | GI50 (SN12C) | GI50 (OVCAR-4) | GI50 (IGROV-1) | GI50 (SNB-19) | GI50 (SNB-75) | GI50 (RXF 393) | GI50 (EKVX) | GI50 (LOX IMVI) | GI50 (NCI-H460) | GI50 (SF-295) | GI50 (SF-268) | GI50 (HT-29) | GI50 (MDA-MB-231) | GI50 (HOP-62) | GI50 (UACC-62) | GI50 (HCT-15) [µM] | GI50 (HCC 2998)
1 | O=C(CN1c2ccccc2Sc2ccccc21)n1cnc2ccccc21 | > 100 µM (inactive) | 59.8 µM (inactive) | 47.1 µM (inactive) | > 100 µM (inactive) | 69 µM (inactive) | > 100 µM (inactive) | > 100 µM (inactive) | > 100 µM (inactive) | > 100 µM (inactive) | > 100 µM (inactive) | 95.3 µM (inactive) | 97.5 µM (inactive) | > 100 µM (inactive) | > 100 µM (inactive) | 73.6 µM (inactive) | 53.2 µM (inactive) | > 100 µM (inactive) | > 100 µM (inactive) | 99.8 | –
2 | O=C1CCCCC(=O)Nc2ccccc2N1 | > 100 µM (inactive) | > 100 µM (inactive) | > 100 µM (inactive) | > 100 µM (inactive) | > 100 µM (inactive) | > 100 µM (inactive) | > 100 µM (inactive) | – | > 100 µM (inactive) | > 100 µM (inactive) | > 100 µM (inactive) | > 100 µM (inactive) | > 100 µM (inactive) | > 100 µM (inactive) | > 100 µM (inactive) | > 100 µM (inactive) | > 100 µM (inactive) | > 100 µM (inactive) | > 100 | –
3 | O=[N+]([O-])c1cccc(-c2cn3c(n2)Cc2ccccc2C3)c1 | 87.3 µM (inactive) | 24.9 µM (inactive) | > 100 µM (inactive) | > 100 µM (inactive) | > 100 µM (inactive) | > 100 µM (inactive) | > 100 µM (inactive) | > 100 µM (inactive) | > 100 µM (inactive) | 90.2 µM (inactive) | 39.8 µM (inactive) | 85.7 µM (inactive) | 78.5 µM (inactive) | > 100 µM (inactive) | 12.3 µM (inactive) | 18.8 µM (inactive) | 29.1 µM (inactive) | 53 µM (inactive) | > 100 | –
4 | COc1ccc(C2N(c3ccc(F)cc3)C(=O)N3C(c4ccc(OC)cc4)N(c4ccc(F)cc4)C(=O)N23)cc1 (stereo not given) | > 100 µM (inactive) | > 100 µM (inactive) | – | > 100 µM (inactive) | > 100 µM (inactive) | > 100 µM (inactive) | > 100 µM (inactive) | > 100 µM (inactive) | > 100 µM (inactive) | > 100 µM (inactive) | > 100 µM (inactive) | > 100 µM (inactive) | > 100 µM (inactive) | > 100 µM (inactive) | > 100 µM (inactive) | > 100 µM (inactive) | > 100 µM (inactive) | > 100 µM (inactive) | > 100 | –
5 | CCOc1c(Cc2ccccc2)c(=O)n2c3ccccc3n3c(=O)n(C)c(=O)c1c23 | > 100 µM (inactive) | > 100 µM (inactive) | > 100 µM (inactive) | > 100 µM (inactive) | > 100 µM (inactive) | > 100 µM (inactive) | > 100 µM (inactive) | 27.2 µM (inactive) | > 100 µM (inactive) | > 100 µM (inactive) | > 100 µM (inactive) | > 100 µM (inactive) | 59.6 µM (inactive) | > 100 µM (inactive) | > 100 µM (inactive) | – | > 100 µM (inactive) | > 100 µM (inactive) | > 100 | > 100 µM (inactive)
6 | Cc1ccc(Oc2ccccc2N)cc1 | 52.5 µM (inactive) | 33.3 µM (inactive) | > 100 µM (inactive) | 31.7 µM (inactive) | 50.9 µM (inactive) | 50.4 µM (inactive) | 78.5 µM (inactive) | 16 µM (inactive) | 25.9 µM (inactive) | 37.5 µM (inactive) | 23 µM (inactive) | 37.8 µM (inactive) | 37.6 µM (inactive) | 46.1 µM (inactive) | 37.2 µM (inactive) | – | 39 µM (inactive) | 60.1 µM (inactive) | 19.5 | 15.4 µM (inactive)
7 | CCCCCCCCCOC(=S)NCCCCC | 24.8 µM (inactive) | – | 29.4 µM (inactive) | 26.2 µM (inactive) | 33.9 µM (inactive) | 38.4 µM (inactive) | 35.1 µM (inactive) | 42.3 µM (inactive) | 19.9 µM (inactive) | 35.2 µM (inactive) | 15.6 µM (inactive) | 28 µM (inactive) | 47.1 µM (inactive) | 37.2 µM (inactive) | 26.8 µM (inactive) | – | 26.4 µM (inactive) | 29.2 µM (inactive) | 23.9 | 34.4 µM (inactive)
8 | CN(C)CC1CCCC/C1=N/OC(=O)c1ccc(Cl)cc1 (stereo not given) | > 100 µM (inactive) | > 100 µM (inactive) | > 100 µM (inactive) | > 100 µM (inactive) | > 100 µM (inactive) | > 100 µM (inactive) | – | > 100 µM (inactive) | > 100 µM (inactive) | > 100 µM (inactive) | > 100 µM (inactive) | > 100 µM (inactive) | > 100 µM (inactive) | > 100 µM (inactive) | > 100 µM (inactive) | – | > 100 µM (inactive) | > 100 µM (inactive) | > 100 | > 100 µM (inactive)
9 | Cc1ccc(Cc2n[nH]c(=O)[nH]2)cc1 | > 100 µM (inactive) | > 100 µM (inactive) | > 100 µM (inactive) | > 100 µM (inactive) | > 100 µM (inactive) | > 100 µM (inactive) | > 100 µM (inactive) | > 100 µM (inactive) | – | > 100 µM (inactive) | > 100 µM (inactive) | > 100 µM (inactive) | > 100 µM (inactive) | – | > 100 µM (inactive) | > 100 µM (inactive) | > 100 µM (inactive) | > 100 µM (inactive) | > 100 | > 100 µM (inactive)
10 | O=C1NN=C(c2c[nH]c3ccccc23)CC1NCc1ccccc1 (stereo not given) | > 100 µM (inactive) | > 100 µM (inactive) | > 100 µM (inactive) | > 100 µM (inactive) | – | 1.01 µM (active) | > 100 µM (inactive) | > 100 µM (inactive) | > 100 µM (inactive) | – | > 100 µM (inactive) | > 100 µM (inactive) | > 100 µM (inactive) | > 100 µM (inactive) | > 100 µM (inactive) | > 100 µM (inactive) | > 100 µM (inactive) | > 100 µM (inactive) | > 100 | –
11 | Cc1ccc(S(=O)OC2c3ccccc3Cc3ccccc32)cc1 (stereo not given) | 19.3 µM (inactive) | 21.2 µM (inactive) | 19.5 µM (inactive) | 20.3 µM (inactive) | 17.8 µM (inactive) | 21.6 µM (inactive) | 23.8 µM (inactive) | 17.9 µM (inactive) | 13.3 µM (inactive) | 18.6 µM (inactive) | 14.4 µM (inactive) | 22.3 µM (inactive) | 23.9 µM (inactive) | 20.7 µM (inactive) | 32.1 µM (inactive) | – | 17.5 µM (inactive) | 17.7 µM (inactive) | 19.9 | 19.1 µM (inactive)
12 | O=P(O)(O)CN1CCNCCN(CP(=O)(O)O)CCN(CP(=O)(O)O)CCNCC1 | > 100 µM (inactive) | 55200 µM (inactive) | > 100 µM (inactive) | > 100 µM (inactive) | > 100 µM (inactive) | 65900 µM (inactive) | > 100 µM (inactive) | 24.4 µM (inactive) | > 100000 µM (inactive) | > 100 µM (inactive) | 91800 µM (inactive) | 42400 µM (inactive) | > 100 µM (inactive) | > 100000 µM (inactive) | 31.3 µM (inactive) | > 100 µM (inactive) | > 100 µM (inactive) | > 100 µM (inactive) | > 100 | –
13 | O=c1oc2c3ccc4ccccc4c3n(CCN3CCCCC3)c2c2ccccc12 | > 62.5 µM (inactive) | 79.1 µM (inactive) | 43.1 µM (inactive) | > 100 µM (inactive) | 23.8 µM (inactive) | > 55.2 µM (inactive) | 28.8 µM (inactive) | 4.98 µM (inactive) | 14.8 µM (inactive) | > 87.5 µM (inactive) | 31.1 µM (inactive) | 4.12 µM (inactive) | 16.8 µM (inactive) | 31.4 µM (inactive) | 10.1 µM (inactive) | – | 21.3 µM (inactive) | 36.3 µM (inactive) | 38.2 | 80.5 µM (inactive)
14 | O=C1CC(C(O)CO)CC(=O)N1 (stereo not given) | > 100 µM (inactive) | > 100 µM (inactive) | – | > 100 µM (inactive) | – | > 100 µM (inactive) | > 100 µM (inactive) | – | – | – | > 100 µM (inactive) | > 100 µM (inactive) | > 100 µM (inactive) | > 100 µM (inactive) | > 100 µM (inactive) | > 100 µM (inactive) | > 100 µM (inactive) | – | > 100 | > 100 µM (inactive)
15 | COc1ccc(/C=C2\CCC(CCN3CCOCC3)C2=O)cc1 (stereo not given) | > 100 µM (inactive) | > 100 µM (inactive) | – | > 100 µM (inactive) | > 100 µM (inactive) | > 100 µM (inactive) | > 100 µM (inactive) | > 100 µM (inactive) | > 100 µM (inactive) | > 100 µM (inactive) | > 100 µM (inactive) | > 100 µM (inactive) | > 100 µM (inactive) | > 100 µM (inactive) | > 100 µM (inactive) | – | > 100 µM (inactive) | > 100 µM (inactive) | > 100 | > 100 µM (inactive)
16 | O=C(O)CO[C@@]12C#C/C=C\C#C[C@@H]3N(C(=O)Oc4ccccc4)c4ccccc4[C@]14O[C@@]34CCC2 | 55.7 µM (inactive) | 17.6 µM (inactive) | 6.75 µM (inactive) | 30.5 µM (inactive) | 56.1 µM (inactive) | 27.2 µM (inactive) | 37 µM (inactive) | – | – | > 100 µM (inactive) | 40.5 µM (inactive) | 36.4 µM (inactive) | > 10 µM (inactive) | 14.3 µM (inactive) | 45.4 µM (inactive) | 12.9 µM (inactive) | 83.8 µM (inactive) | 11.5 µM (inactive) | 8.55 | 12.5 µM (inactive)
